Among the data in ChEMBL document CHEMBL1127059, “Synthesis and antiviral activity of 5'-deoxypyrazofurin” (J Med Chem, 1993) are IC50 values, retold here.

Values after ≈ are worked out from the molar mass of the structure shown.

As usually defined, the IC50 is the concentration that inhibits the measured activity by half.

The subject of experiment [1] is HeLa. Description: Tested for inhibitory effect on RNA virus RSV in HeLa cell line. It counts as functional, cell-based. As to conditions: Homo sapiens.
A further experiment deals with FM3A. It counts as functional, cell-based. Conditions: Mus musculus.
The subject of experiment [2] is MT4. Description: cells. As to conditions: Homo sapiens.
Experiment [3] relates to HeLa. It counts as functional, cell-based. Conditions: Homo sapiens.
Experiment [4] relates to HEL. The experiment is described as follows: Tested for inhibitory effect on DNA virus CMV (Davis) in HEL cell line. Conditions: Homo sapiens. It counts as functional, cell-based.
The subject of experiment [5] is ESM. The experiment is described as follows: Tested for inhibitory effect on DNA virus TK-HSV-1(VMW 1837) in ESM cell line. Format: functional, cell-based. As to conditions: Homo sapiens.
Experiment [6] relates to HeLa. The experiment is described as follows: Tested for inhibitory effect on RNA virus Polio-1 in HeLa cell line. Format: functional, cell-based. Conditions: Homo sapiens.
The test system of experiment [7] is ESM. Description: Tested for inhibitory effect on DNA virus TK-HSV-1 (B2006) in ESM cell line. As to conditions: Homo sapiens. It counts as functional, cell-based.
The test system of experiment [8] is ESM. Description: Tested for inhibitory effect on DNA virus HSV-2 (G) in ESM cell line. It counts as functional, cell-based. Conditions: Homo sapiens.
Experiment [9] concerns HEL. Description: Tested for inhibitory effect on DNA virus CMV (AD-169) in HEL cell line. It counts as functional, cell-based. Conditions: Homo sapiens.
Experiment [10] has as its system MDCK. Format: functional, cell-based. Conditions: Canis lupus familiaris.
Experiment [11] relates to ESM. Format: functional, cell-based. As to conditions: Homo sapiens.
In experiment [12] the test system is Vero. Description: Tested for inhibitory effect on RNA virus SFV in Vero cell line. It counts as functional, cell-based. As to conditions: Chlorocebus sabaeus.
Experiment [13] deals with Vero. Description: Tested for inhibitory effect on RNA virus PV-3 in Vero cell line. Format: functional, cell-based. As to conditions: Chlorocebus sabaeus.
The test system of experiment [14] is MDCK. The experiment is described as follows: Tested for inhibitory effect on RNA virus Influenza B in MDCK cell line. Conditions: Canis lupus familiaris. It counts as functional, cell-based.
In experiment [15] the test system is Vero. The experiment is described as follows: Tested for inhibitory effect on RNA virus Coxsackie B4 in Vero cell line. It counts as functional, cell-based. As to conditions: Chlorocebus sabaeus.
In experiment [16] the test system is HEL. Description: Tested for inhibitory effect on DNA virus VZV (YS) in HEL cell line. Format: functional, cell-based. As to conditions: Homo sapiens.
The subject of experiment [17] is Vero. Description: Tested for inhibitory effect on RNA virus JV in Vero cell line. Conditions: Chlorocebus sabaeus. Format: functional, cell-based.
The test system of experiment [18] is Vero. Description: Tested for inhibitory effect on RNA virus SV in Vero cell line. It counts as functional, cell-based. As to conditions: Chlorocebus sabaeus.
Experiment [19] concerns Vero. The experiment is described as follows: Tested for inhibitory effect on RNA virus Reo-1 in Vero cell line. As to conditions: Chlorocebus sabaeus. Format: functional, cell-based.
The test system of experiment [20] is Vero. It counts as functional, cell-based. As to conditions: Chlorocebus sabaeus.
The next experiment concerns CCRF-CEM. Format: functional, cell-based. Conditions: Homo sapiens.
In experiment [21] the test system is HEL. The experiment is described as follows: Tested for inhibitory effect on DNA virus TK-VZV (07/1) in HEL cell line. Format: functional, cell-based. Conditions: Homo sapiens.
Experiment [22] deals with HEL. The experiment is described as follows: Tested for inhibitory effect on DNA virus TK-VZV (YS/R) in HEL cell line. Format: functional, cell-based. Conditions: Homo sapiens.
For experiment [23], the system named is ESM. Description: Tested for inhibitory effect on DNA virus HSV-1(KOS) in ESM cell line. Format: functional, cell-based. Conditions: Homo sapiens.
Experiment [24] relates to ESM. The experiment is described as follows: Tested for inhibitory effect on DNA virus VV in ESM cell line. Format: functional, cell-based. As to conditions: Homo sapiens.
The test system of experiment [25] is MT4. Description: Tested for inhibitory effect on RNA virus HIV-2 in MT-4 cell line. Format: functional, cell-based. Conditions: Homo sapiens.
The test system of experiment [26] is MDCK. The experiment is described as follows: Tested for inhibitory effect on RNA virus Influenza A in MDCK cell line. Format: functional, cell-based. As to conditions: Canis lupus familiaris.
For another experiment, the system named is L1210. Format: functional, cell-based. Conditions: Mus musculus.
For experiment [27], the system named is MT4. Description: Tested for inhibitory effect on RNA virus HIV-1 in MT-4 cell line. Format: functional, cell-based. Conditions: Homo sapiens.
Experiment [28] has as its system HEL. Description: Tested for inhibitory effect on DNA virus VZV (Oka) in HEL cell line. Format: functional, cell-based. As to conditions: Homo sapiens.
Experiment [29] has as its system HeLa. The experiment is described as follows: Tested for inhibitory effect on RNA virus VSV in HeLa cell line. Format: functional, cell-based. Conditions: Homo sapiens.
Experiment [30] deals with HEL. It counts as functional, cell-based. Conditions: Homo sapiens.
The test system of experiment [31] is Vero. Description: Tested for inhibitory effect on RNA virus TV in Vero cell line. Format: functional, cell-based. Conditions: Chlorocebus sabaeus.
Experiment [32] relates to Vero. It counts as functional, cell-based. As to conditions: Chlorocebus sabaeus. The source holds these as a separate data set.

On to `C[C@H]1OC(c2n[nH]c(C(N)=O)c2O)[C@H](O)[C@@H]1O` (some centres undefined), for which the IC50 with HeLa [1] was 4 µg/mL (≈ 16.4 µM); in the experiment on FM3A it was 39 µg/mL (≈ 160 µM); in the experiment with MT4 [2], 8.8 µg/mL (≈ 36.2 µM); in the experiment on HeLa [3] it was no less than 170 µg/mL; in the experiment with HEL [4] it was greater than 40 µg/mL; in the experiment with ESM [5], 70 µg/mL (≈ 288 µM). Besides, the concentration for half-maximal inhibition (IC50) in the experiment on HeLa [6] was 55 µg/mL (≈ 226 µM); in the experiment on ESM [7] it was 55 µg/mL (≈ 226 µM); in the experiment on ESM [8], greater than 300 µg/mL; in the experiment with HEL [9], greater than 40 µg/mL; with MDCK [10], 100 µg/mL (≈ 411 µM); in the experiment on ESM [11], no less than 400 µg/mL. The IC50 with Vero [12] is greater than 200 µg/mL; with Vero [13], greater than 200 µg/mL; in the experiment with MDCK [14], greater than 100 µg/mL; in the experiment on Vero [15] it was 70 µg/mL (≈ 288 µM); with HEL [16] it was 22 µg/mL (≈ 90.5 µM); in the experiment with Vero [17] it was greater than 40 µg/mL. The IC50 in the experiment on Vero [18] is greater than 200 µg/mL; in the experiment on Vero [19], greater than 175 µg/mL; in the experiment on Vero [20] it was greater than 400 µg/mL; in the experiment on CCRF-CEM, greater than 49 µg/mL; in the experiment on HEL [21], greater than 40 µg/mL; in the experiment with HEL [22] it was greater than 40 µg/mL. In addition, the 50% inhibitory concentration (IC50) was no less than 350 µg/mL in the experiment on ESM [23]; 5.5 µg/mL (≈ 22.6 µM) with ESM [24]; greater than 4 µg/mL in the experiment on MT4 [25]; 20 µg/mL (≈ 82.2 µM) with MDCK [26]; 37 µg/mL (≈ 152 µM) with L1210; greater than 4 µg/mL in the experiment on MT4 [27]. Besides, the IC50 was 40 µg/mL (≈ 164 µM) in the experiment with HEL [28], 14 µg/mL (≈ 57.6 µM) in the experiment on HeLa [29], greater than 50 µg/mL in the experiment with HEL [30] and greater than 40 µg/mL in the experiment with Vero [31].
For `Nc1nc2c(ncn2COCCO)c(=O)[nH]1` [ACYCLOVIR], the IC50 was greater than 100 µg/mL in the experiment with MT4 [2], 22 µg/mL (≈ 97.7 µM) with HEL [4] and greater than 200 µg/mL in the experiment with HEL [30].
As for `NC(=O)c1ncn([C@@H]2O[C@H](CO)[C@@H](O)[C@H]2O)n1` [RIBAVIRIN], the IC50 is 4 µg/mL (≈ 16.4 µM) in the experiment on HeLa [1]; 3.9 µg/mL (≈ 16 µM) in the experiment on FM3A; 6.5 µg/mL (≈ 26.6 µM) in the experiment with MT4 [2]; no less than 400 µg/mL in the experiment on HeLa [3]; 110 µg/mL (≈ 450 µM) in the experiment with ESM [5]; 70 µg/mL (≈ 287 µM) with HeLa [6]. The half-inhibitory concentration (IC50) is greater than 135 µg/mL in the experiment with ESM [7]; greater than 400 µg/mL in the experiment with Vero [32]; greater than 300 µg/mL in the experiment with ESM [8]; greater than 200 µg/mL in the experiment on MDCK [10]; no less than 400 µg/mL in the experiment with ESM [11]; no less than 235 µg/mL in the experiment with Vero [12]. The half-inhibitory concentration (IC50) is 20 µg/mL (≈ 81.9 µM) in the experiment with Vero [13]; 4 µg/mL (≈ 16.4 µM) with MDCK [14]; 20 µg/mL (≈ 81.9 µM) in the experiment on Vero [15]; 5.2 µg/mL (≈ 21.3 µM) with Vero [17]; no less than 250 µg/mL in the experiment on Vero [18]; 160 µg/mL (≈ 655 µM) in the experiment on Vero [19]. Moreover, the IC50 with CCRF-CEM is 19 µg/mL (≈ 77.8 µM); with ESM [23], no less than 350 µg/mL; in the experiment on ESM [24], 45 µg/mL (≈ 184 µM); with MT4 [25] it was greater than 5 µg/mL; in the experiment on MDCK [26], 4 µg/mL (≈ 16.4 µM); in the experiment on L1210, 7.1 µg/mL (≈ 29.1 µM). For the same compound, the IC50 in the experiment with MT4 [27] was greater than 5 µg/mL; in the experiment on HeLa [29], 14 µg/mL (≈ 57.3 µM); with Vero [31], 6.4 µg/mL (≈ 26.2 µM).
